Assay results taken from ChEMBL document CHEMBL1201862, “PubChem BioAssay data set” (2004).
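Step 1: Grow cells in 96-well plates. Step 2: Expose to compound for 48 hours at 5 concentrations. Step 3: Interpolate endpoints linearly; if unreached, use highest concentration. GI50 marks 50% less growth.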 The source made the active and inactive calls. Cut-off read from the data, not from the text of the source: active = GI50 up to about 1.1 µM and inactive = higher.

Tests used:
Assay in all cases: growth of human tumour cells (NCI), 48 h
M19-MEL = test system: M19-MEL
DMS-273 = test system: DMS-273
DMS-114 = test system: DMS-114
KM-20L2 = test system: KM-20L2
XF498 = test system: XF498
RXF 631 = test system: RXF 631
HOP-18 = test system: HOP-18
LXFL 529 = test system: LXFL 529
DLD-1 = test system: DLD-1

| Structure (SMILES) | GI50 (M19-MEL) | GI50 (DMS-273) | GI50 (DMS-114) | GI50 (KM-20L2) | GI50 (XF498) | GI50 (RXF 631) | GI50 (HOP-18) | GI50 (LXFL 529) | GI50 (DLD-1) |
| --- | --- | --- | --- | --- | --- | --- | --- | --- | --- |
| O=C(c1ccccc1)c1c(CC(O)c2cccnc2)n(C(=O)c2ccccc2)c2ccccc12 (centres undefined) | 19.7 µM (inactive) | 28.2 µM (inactive) | 27.7 µM (inactive) | 21.3 µM (inactive) | 13.6 µM (inactive) |  |  |  |  |
| C#C[C@H]1CCCCCC1O (some centres undefined) | > 100 µM (inactive) | > 100 µM (inactive) | > 100 µM (inactive) | > 100 µM (inactive) | > 100 µM (inactive) | > 100 µM (inactive) | 54.6 µM (inactive) | 96.8 µM (inactive) | > 100 µM (inactive) |
| O=C1c2ccccc2C(=O)N1CCn1nc(-c2ccccc2)cc(-c2ccccc2)c1=O | 69.3 µM (inactive) | 49.5 µM (inactive) | > 100 µM (inactive) | > 100 µM (inactive) |  | 27.7 µM (inactive) | 42.6 µM (inactive) | 52.2 µM (inactive) | > 100 µM (inactive) |
| c1ccc(N2N=C(c3ccco3)CC2c2ccco2)cc1 (centres undefined) | > 100 µM (inactive) | > 100 µM (inactive) | 49.2 µM (inactive) | > 100 µM (inactive) | > 100 µM (inactive) |  |  | 64.1 µM (inactive) |  |
| CC1C=C(OC(=O)c2ccccc2)C(=O)C(n2cc(F)c(=O)n(C(=O)c3ccccc3)c2=O)O1 (centres undefined) | 39.3 µM (inactive) | 37.4 µM (inactive) | 42.1 µM (inactive) | 32.1 µM (inactive) | 21.8 µM (inactive) | 52 µM (inactive) | > 100 µM (inactive) |  | 41.6 µM (inactive) |
| C/C(=C\c1ccccc1)C(O)C(=O)c1nc2ccc(Cl)cc2nc1O (centres undefined) | > 100 µM (inactive) | > 100 µM (inactive) | 46.3 µM (inactive) | > 100 µM (inactive) | 92 µM (inactive) |  |  | 84.5 µM (inactive) | > 100 µM (inactive) |
| C1CCN2CC3CONC3C2C1 (centres undefined) | > 100 µM (inactive) | > 100 µM (inactive) | > 100 µM (inactive) | > 100 µM (inactive) | > 100 µM (inactive) |  |  | > 100 µM (inactive) | > 100 µM (inactive) |
| COc1cccc(-c2nccc3c(OCc4ccccc4)c(OC)c(OC)cc23)c1 | > 100 µM (inactive) | 27.2 µM (inactive) | 35.6 µM (inactive) | > 100 µM (inactive) | > 100 µM (inactive) |  |  | 5.74 µM (inactive) | 7.74 µM (inactive) |
| COCCOCCOCCOc1cccc2c1C(=O)c1cccc(OCCOCCOCCOC)c1C2=O | > 100 µM (inactive) | > 100 µM (inactive) | > 100 µM (inactive) | > 100 µM (inactive) | > 100 µM (inactive) | > 100 µM (inactive) | > 100 µM (inactive) | > 100 µM (inactive) | > 100 µM (inactive) |
| CN(C)/C(=N\C#N)N(Cc1ccccc1)Cc1ccccc1 | > 100 µM (inactive) | > 100 µM (inactive) |  | > 100 µM (inactive) |  |  | > 100 µM (inactive) | 56.5 µM (inactive) | 43.2 µM (inactive) |
| CC1NOC(=O)C1/N=N/c1ccccc1Cl (centres undefined) | 23 µM (inactive) |  | 34.7 µM (inactive) | 68.4 µM (inactive) | 27.9 µM (inactive) | 37.1 µM (inactive) | 35 µM (inactive) | 45.5 µM (inactive) | 39.4 µM (inactive) |
| C[N+](C)(C)CC1CCc2ccccc2C1=O (centres undefined) | 16 µM (inactive) | 2.16 µM (inactive) | 13.5 µM (inactive) | 19.6 µM (inactive) | 2.39 µM (inactive) |  |  | 2.57 µM (inactive) | 4.86 µM (inactive) |
| COCC1N=C(c2ccc(OC)c(OCc3ccccc3)c2OC)O[C@H]1c1ccccc1 (some centres undefined) | 17.4 µM (inactive) | 15.8 µM (inactive) | 12.2 µM (inactive) | 17.9 µM (inactive) |  |  |  | 14.8 µM (inactive) | 20.6 µM (inactive) |
| O=C1C(=O)N(c2cc(Cl)ccc2Cl)C(=O)C(=O)C1c1nc2ccccc2o1 | > 100 µM (inactive) | > 100 µM (inactive) | > 89.1 µM (inactive) | > 100 µM (inactive) | > 100 µM (inactive) | > 100 µM (inactive) | 63.1 µM (inactive) | > 100 µM (inactive) | > 100 µM (inactive) |
| O=C1NN=C(c2ccc([N+](=O)[O-])cc2)C1n1nc(-c2ccccc2)c2ccccc2c1=O (centres undefined) | > 100 µM (inactive) | > 46 µM (inactive) |  | > 100 µM (inactive) | > 100 µM (inactive) | > 100 µM (inactive) | > 100 µM (inactive) | > 100 µM (inactive) | > 50.7 µM (inactive) |
| CC(=O)NNc1nc(C)c(C(=O)NNC(=O)C(=O)Nc2ccc(Cl)cc2)s1 | > 100 µM (inactive) |  |  | > 100 µM (inactive) | > 100 µM (inactive) |  |  | 34.7 µM (inactive) |  |
| COc1cc2ccc3c4c(OC)cc(OC)c(OC)c4c([O-])[n+](C)c3c2cc1OC | 6.46 µM (inactive) | 0.428 µM (active) | 2.37 µM (inactive) | 9.38 µM (inactive) | 2.34 µM (inactive) | > 100 µM (inactive) | > 100 µM (inactive) | 1.79 µM (inactive) |  |
| NC(=O)c1csc(CCCCCCc2nc(C(N)=O)cs2)n1 | 18.7 µM (inactive) | > 100 µM (inactive) | > 71.3 µM (inactive) | > 100 µM (inactive) |  | > 100 µM (inactive) | > 100 µM (inactive) | > 100 µM (inactive) | > 73.6 µM (inactive) |
| CCCCCCCCCCCCCCCCCCOP(=O)([O-])OC1CC[N+](C)(C)CC1 [PERIFOSINE] | 4.01 µM (inactive) | 2.86 µM (inactive) | 12.5 µM (inactive) | 2.24 µM (inactive) | 15.7 µM (inactive) |  |  | 4.03 µM (inactive) | 10.4 µM (inactive) |
| COc1ccc(C)cc1C1CCC(=O)O1 (centres undefined) | > 100 µM (inactive) | > 100 µM (inactive) | > 100 µM (inactive) | > 100 µM (inactive) | 63.8 µM (inactive) |  | > 100 µM (inactive) | > 100 µM (inactive) | > 100 µM (inactive) |
| COc1ccc(C2=CC3CCC2C3)cc1 (centres undefined) |  | > 100 µM (inactive) |  |  | > 100 µM (inactive) |  | > 100 µM (inactive) | 0.0535 µM (active) | > 100 µM (inactive) |
| Cc1nc(N)nn1C1OCC(O)C(O)C1O (centres undefined) |  | > 100 µM (inactive) | > 100 µM (inactive) | > 100 µM (inactive) | > 100 µM (inactive) |  |  | > 100 µM (inactive) | > 100 µM (inactive) |
| COc1cc([C@@H]2c3cc4c(cc3[C@@H](NC(=O)c3cccc(N)c3)C3COC(=O)[C@@H]32)OCO4)cc(OC)c1O (some centres undefined) | 3.41 µM (inactive) | 0.117 µM (active) | 0.968 µM (active) | 2.97 µM (inactive) | 1.11 µM (active) | 0.412 µM (active) |  | 13.1 µM (inactive) | 7.03 µM (inactive) |
